These results are taken from US10111889B2, “Uses of ganaxolone” (priority 2014, dated 2018).

For series [1], the system named is wild-type mice. Particulars: thalamus of wild-type mice; cited from earlier work.
For series [2], the system named is RQ mice. The experiment in a line: Evaluation of sleep patterns (video and EEG) in RQ mice. Type of series: in vivo, mouse. The following applies: 2 mg/kg i.p. on two consecutive days. The source says:
RR and RQ mice (n=3 each) were monitored with video and EEG recordings. […] Sleep stages (Wake, NREM and REM) were scored visually from the EEG by an experienced scorer. For statistical analysis, EEG delta power (0.5-4 Hz) was normalized by dividing by the sum of power in the non-delta bands (6-100 Hz).

The test system of series [3] is WAG/Rij mice. The following applies: administered directly into somatosensory cortex; cited from earlier work.
The conditions of series [4]: clinical trials; even at very high doses; cited from earlier work.
In series [5] the test system is GABAA receptor. The experiment in a line: Whole-cell patch clamp, tonic/holding current in somatosensory cortical layer II/III pyramidal cells of brain slices. The class given is cell-based, mouse. Particulars: 30 μM.
Experimental: Horizontal slices (400 μm) were prepared from the brains of C57BL/6J mice RR and RQ mice of either sex (16-26 days old). […] Mice were anesthetized with isoflurane, decapitated, and the brain was removed and placed in ice-cold cutting solution containing (in mM): 125 NaCl, 25 NaHCO3, 2.5 KCl, 1.25 NaH2PO4, 0.5 CaCl2, 3.35 MgCl2, 25 D-Glucose, 13.87 M sucrose, and bubbled with 95% O2 and 5% CO2. Slices were cut using a vibratome (Leica VT 1000S, Global Medical Imaging; Ramsey, Minn.) and placed in an incubation chamber containing standard 2 mM CaCl2, 1 mM MgCl2 artificial cerebrospinal fluid (ACSF) at room temperature for 1 hour before being used for recordings. Whole cell patch-clamp recordings were made from somatosensory cortical layer II/III pyramidal cells or ventrobasal thalamic relay cells, visualized using an upright differential interference contrast microscope (Axioskop FS2, Zeiss; Oberkochen, Germany). […]
Additional segments (30 s) just prior to and 90 s after bicuculline administration were analyzed to quantify inhibitory tonic currents. […] Tonic current was calculated as the difference between the fitted Gaussian means before and after bicuculline administration. Current density (pA/pF) was calculated by dividing the current by cell capacitance.
In series [6] the test system is wild-type (RR) mice. The experiment in a line: EEG monitoring of SWDs in wild-type (RR) mice after blocking cortical tonic inhibition. The class given is in vivo, mouse. The source says: The present study used wild-type Harlan C57BL/6J-OlaHsd and γ2R43Q knock-in mice bred into a background of C57BL/6J-OlaHsd mice. Behavioral and electrographic markers of absence epilepsy in these animals were confirmed by video-EEG monitoring. In-depth detailing of surgery and electrode implantation are described in the prior art. Briefly, P24 mice were implanted, under isoflurane anesthesia (1%-2% in 100% O2), for chronic EEG recordings with gold plated miniature screw electrodes over the right and left frontal and parietal cortices, and one over the cerebellum as reference. Two vinyl-coated braided stainless steel wire electrodes were placed in the nuchal muscle for electromyogram (EMG) recording of muscle activity. All electrodes were gathered into a flexible cable and connected to the Multichannel Neurophysiology Recording system (Tucker-Davis Technologies, TDT, Alachua, Fla., USA). […] Continuous EEG recordings with occasional video monitoring were made and SWDs were scored off-line. […] Only SWD events that occurred >2 min from slow-wave-sleep periods were used for quantification. SWD event durations were measured from the first synchronized positive peak signal to the last synchronized positive peak within an event. […]
When comparing normally distributed data, two groups were assessed with a t-test and comparisons of three or more were assessed with ANOVA. […]

Take `Oc1noc2c1CCNC2` [THIP, 4,5,6,7-tetrahydroisoxazolo[5,4-c]pyridin-3-ol]: the “SWDs associated with absence epilepsy” value in series [1] is given as “produces the SWDs”.

In the case of `CC(=O)[C@H]1CC[C@H]2[C@@H]3CC[C@H]4C[C@](C)(O)CC[C@]4(C)[C@H]3CC[C@]12C` [GANX, 3α-hydroxy-3β-methyl-5α-pregnan-20-one], in series [2] (RQ mice), the “briefer Wake durations of RQ mice” value is listed as “not reversed”, the “shorter brief awakenings (<=16 seconds) of RQ mice” value is reported as “not altered” and the “shorter durations of single NREM episodes of RQ mice” value is given as “reversed by GANX to normal levels”. Also, the “higher normalized delta power of RQ mice” value in series [2] (RQ mice, normal sleep time (daylight)) is reported as “reversed by GANX toward normal levels”. In series [2] (RR, RQ, RQ with GANX), the “durations of REM” value was “No groups differed” and the “number of brief awakenings” value is recorded as “did not differ between any groups”. Also, in series [3], the “number of SWDs observed” value is on record as “decreases the number of SWDs”. Moreover, the side effects entry in series [4] was “relatively modest side effects”.

Take `CCOC(=O)c1ncn2c1C1CCCN1C(=O)c1cc(OC)ccc1-2` (stereo not shown) [L655,708, 11,12,13,13a-Tetrahydro-7-methoxy-9-oxo-9H-imidazo[1,5-a]pyrrolo[2,1-c][1,4]benzodiazepine-1-carboxylic acid, ethyl ester]: the “tonic current in RR somatosensory cortical layer II/III cells” value in series [5] is “completely blocked”. The “SWD generation in RR mice” value in series [6] (2 mg/kg i.p.) is listed as “produced SWDs”. The “persistence of SWDs after the last injection” value in series [6] (injected twice a day for 2 consecutive days, wild-type mice) is listed as “still displayed SWDs 3 days after the last injection”.

Consider `CC(=O)[C@H]1CC[C@H]2[C@@H]3CC[C@H]4C[C@H](O)CC[C@]4(C)[C@H]3CC[C@]12C` [allopregnanolone], for which the “number of SWDs observed” value in series [3] is given as “decreases the number of SWDs”.
